As a reminder, the melting point is the temperature, or range, at which the solid turns liquid.

Bounds are passed on as bounds.

`CCC(=O)Nc1onc2c1c(=O)n(C)c(=O)n2C`: the melting point was 150 to 152 °C.

`C=CC(C)c1cc(C)c2c(c1O)C(N(C)C=O)C1CCCCC21` (stereo not given) displayed a melting point of 158 to 159 °C.

As to `CSc1ncncc1C(O)c1ccccc1F` (stereo not given), the melting point was in the range of 176 to 177 °C.

`CCc1noc(-c2ncc3[nH]c4cccc(OCc5ccccc5)c4c3c2COC)n1` had a melting point of 180 to 184 °C.

`Cc1cc(C#N)cc(C(=O)Nc2ccc(F)c(F)c2)n1` came in with a melting point of 170 °C.

`c1ccc(C2=NN=C(N3CCOCC3)SC2)cc1` gave a melting point of 173 to 174 °C.

Compound `CCOC(=O)Nc1c(C(=O)c2ccccc2)[nH]c2cc(Cl)ccc12` registered a melting point of 159 to 161 °C.

On to `Cc1ccc(CNC(=O)c2cc(Cl)cc3cc(C)oc23)cc1`, for which the melting point lay within 130 to 132 °C.

`CCCN(CCCC(=O)Nc1c(C(C)C)nc(C)nc1N(CC)CC)c1ccccc1`: the melting point lay within 129 to 131 °C.

In turn, `O=CNC1CCc2ccccc2N(C=O)C1` (stereo not given) showed a melting point of 130 °C.

Compound `Fc1ccc(-n2ccc3cc(-c4ccccn4)ccc32)cc1` gave a melting point of 119 to 121 °C.

`CC1(C)OCc2cc([C@@H](O)CN[C@H]3CCc4ccc(O)cc4C3)ccc2O1` returned a melting point of 156 to 158 °C.

`CC(C)OC(=O)c1cc(NC(=O)c2ccccc2)c(F)cc1Cl` returned a melting point of 117 to 119 °C.

Regarding `CN(C)c1nc2cc(Br)ccn2n1`, the melting point was 133 to 134 °C.

In turn, `c1cc(-c2ccsc2)ccn1` came in with a melting point of 138 °C.

`COC(=O)C1CCC2C3CCC4CC=CCC4(C)C3C(NCCC(C)C)CC12C` (stereo not given) yielded a melting point of 150 to 152 °C.

Regarding `Cc1ccnc2c([N+](=O)[O-])cc3c(c12)OCO3`, the melting point was in the range of 183 to 185 °C.

Compound `CN(C(=O)Nc1ccccc1)c1cccc(-c2ccc(CC3SC(=O)NC3=O)cc2)c1` (stereo not given) registered a melting point of 183 °C.

As for `CC(C)(C)C(O)C(CCCCOc1ccccc1)n1cncn1` (stereo not given), the melting point was in the range of 79 to 81 °C.

In turn, `COc1c(N2CCC(n3cc(C)nn3)C2)c(F)cc2c(=O)c(C(=O)O)cn(C3CC3)c12` (stereo not given) yielded a melting point of 174 to 176 °C.

For `CCCc1cnc(NC(=O)C2c3ccccc3Oc3ccccc32)o1`, the melting point is 203 to 205 °C.

Consider `CC(C)NC(=O)COC1c2ccccc2C(=O)N1c1ccc2ccc(Cl)nc2n1` (stereo not given), for which the melting point amounted to 188 °C.

Regarding `CC(C)(F)Cn1c(N)nc2c(N)nc3ccccc3c21`, the melting point came to 251 °C.

Take `Cc1cc(-c2nc3cc(NC(=O)c4c(C(=O)N5CCC5)cnn4C)ccn3n2)ccn1`: the melting point was 210 to 211 °C.

With `O=C(NCCCO)C1=C(C(=O)Nc2ccc(Cl)cc2F)CCCC1`, the melting point stood at 138 °C.

`FC(F)(F)c1cc(CO[C@@H]2CCCN(Cc3nnn[nH]3)[C@@H]2c2ccccc2)cc(C(F)(F)F)c1` (relative stereo) displayed a melting point of 114 to 115 °C.

On to `CCN1CCN(c2c(F)cc3c(=O)c(C(=O)O)cn(C4CC4)c3c2C#N)CC1`, for which the melting point is > 300 °C.

Take `COc1ccc(CNc2ncnc3c2ncn3C2OC(CN=[N+]=[N-])C(O)C2O)cc1` (stereo not given): the melting point was 191 °C.

Compound `O=C(O)c1cc(NCc2c(F)c(F)c(C(F)(F)F)c(F)c2F)ccc1O` showed a melting point of 179 °C.

For `N#Cc1c(N2CCN(C(=O)c3cccs3)CC2)c2cc(F)cnc2[nH]c1=O`, the melting point is 244 °C.

The compound `CCOC(=O)c1cn(C)c2cnc3cc(N4CCCC(C)(C)C4)c(F)cc3c2c1=O` displayed a melting point of 198 to 200 °C.

As to `CC(=O)N(C)CCc1coc2ccc3c(c12)CCCO3`, the melting point stood at 82 °C.

Regarding `CC1(C)CC(CN2CCCNC2=N[N+](=O)[O-])CO1` (stereo not given), the melting point was in the range of 109 to 110 °C.

Consider `CC(=O)N(C)CC(C)c1ccncc1` (stereo not given), for which the melting point is 83 to 88 °C.

`CC(C)(O)Cc1nc2cnc3ccccc3c2s1` showed a melting point of 155 to 157 °C.

The compound `COc1cc(C=CC(=O)c2ccccc2F)cc(OC)c1` registered a melting point of 71.6 to 72.5 °C.

`CCCCCCCCOc1ccc(-c2cc(F)cc(F)c2F)cc1` gave a melting point of 31 °C.

With `O=c1cc(-n2ccnc2)c2cc(C(c3ccc(Cl)cc3)n3ccnc3)ccc2[nH]1` (stereo not given), the melting point was found to be 242 °C.

Turning to `Cc1c[nH]c2c([N+](=O)[O-])ccc(Cl)c2c1=O`, the melting point was > 250 °C.

The compound `CC1C2=C(CN=C(c3ccccc3Cl)c3cc(Cl)ccc32)C(=O)N1CC(N)=O` (stereo not given) yielded a melting point of 221 to 222 °C.

With `CNC(=O)c1cccc(NCC(=O)NCCc2ccc(OC)c(OC)c2)c1`, the melting point lay within 93 to 96.5 °C.

With `CC(C)c1ccccc1N=C1NCCS1`, the melting point lay within 76 to 77 °C.

Consider `CNS(=O)(=O)Cc1cc(Br)c(N)c(Br)c1`, for which the melting point was in the range of 155 to 157 °C.

With `COc1ccccc1OCC(O)CN1CCC(NC(=O)NC(=O)c2ccc(F)cc2)CC1` (stereo not given), the melting point was in the range of 194 to 195 °C.

In turn, `CCn1cc(CN(C(=O)C2CCCc3c(OCCCN(C)C)cccc32)c2ccc(C(C)C)cc2)cn1` (stereo not given) yielded a melting point of 143 °C.

Turning to `N#CC1=C(C2CCCCC2=O)Nc2n[nH]cc2C1c1cccc(C#N)c1Br` (stereo not given), the melting point amounted to 273 °C.

In turn, `C#Cc1ccc(C2CCC(C3CCC(CCC)CC3)CC2)cc1` (stereo not given) had a melting point of 71 °C.

The compound `N#CC(Cc1c[nH]cn1)(c1ccccc1)c1ccc(Cl)cc1Cl` (stereo not given) yielded a melting point of 215 to 218 °C.

`CCCCCCCCCCCCc1ccccc1C(SC(CC(=O)O)C(=O)O)C(=O)O` (stereo not given) yielded a melting point of 85 to 89 °C.

`CC(C)(C)OC(=O)NCc1ccc2c(Br)c(O)ccc2c1`: the melting point lay in the range of 150 to 152 °C.

In turn, `COc1ccc2c3c(c(=O)oc2c1)CN(CC(C)=O)CC3` showed a melting point of 123 to 125 °C.

Regarding `Nc1ccc2ccccc2c1S`, the melting point fell in the range of 108 to 110 °C.

Consider `COC(=O)Nc1cn2cc(S(=O)c3ccccc3)ccc2n1` (stereo not given), for which the melting point was 247 to 248 °C.

As to `CCOCCn1c(N2CCCN(CCC3(c4ccncc4)CCN(C(=O)c4cc(OC)c(OC)c(OC)c4)C3)CC2)nc2ccccc21` (stereo not given), the melting point was in the range of 85 to 95 °C.

Turning to `COc1cc(N(C)C)ccc1-c1nc2c(N[C@H]3[C@@H](C(N)=O)[C@@H]4C=C[C@H]3C4)c(Br)cnc2[nH]1`, the melting point lay in the range of 218 to 220 °C.

In turn, `CC(C=O)(CCc1c[nH]c2ccccc12)NC(=O)OC1C2CC3CC(C2)CC1C3` (stereo not given) came in with a melting point of 178 to 179 °C.

As to `CCc1cn(C2CC(O)C(CNCC(C)Oc3ccc(Cl)cc3Cl)O2)c(=O)[nH]c1=O` (mixture of isomers), the melting point was in the range of 51 to 61 °C.

`COC1(C)CC(NC(=O)C(F)(F)F)C(O)(NC(=O)C(F)(F)F)C(C)O1` (stereo not given) yielded a melting point of 165 to 166 °C.

Turning to `O=P(O)(O)C1(P(=O)(O)O)CCCN1`, the melting point amounted to 80 °C.

As for `Cc1cc(Nc2ccccc2C(=O)O)n(Cc2ccncc2)n1`, the melting point lay within 235 to 238 °C.

`N#Cc1cn(C2CCc3ccccc3NC2=O)nn1` (stereo not given): the melting point is 214 to 216 °C.

With `COc1cc(OCc2ccccn2)ccc1/C=C/c1cc(/C=C/c2ccc3[nH]ccc3c2)n[nH]1`, the melting point was in the range of 98 to 104 °C.

The compound `CCN(CC)C(=O)c1c(OC)cccc1-c1ccccc1` returned a melting point of 79 to 80 °C.

In turn, `CC(C)c1ccc2c(c1)C(O)(c1ccccn1)CC(C)(C)CO2` (stereo not given) had a melting point of 72 °C.

In turn, `COCCNC(NC(=O)c1cccnc1)C(Cl)(Cl)Cl` (stereo not given) had a melting point of 75 to 77 °C.
